In paper PMC8196580, “Identification of Kaurane-Type Diterpenes as Inhibitors of Leishmania Pteridine Reductase I” (Molecules, 2021):
Like-named read-outs stand apart in the source and are kept apart here.

What was measured:
L. major [1] = test: ChEMBL dataset of pIC50 values against L. major used for the RF model (Table S1); format: cell-based, Leishmania major; further: call rule not given here
L. major [2] = tested on: L. major; design: method as in ChEMBL; settings: ref ChEMBL, cited from earlier work
[3] = Active/Inactive class assigned to ChemBL structures for Random forest model construction (Table S1)
[4] = ChemBL structures with pIC50 values used for Random forest model construction (Table S1)
[5] = Active/Inactive class assigned to the ChEMBL pIC50 value for Random forest model construction, ref ChEMBL
[6] = ChemBL structures with pIC50 values used for Random forest model construction, L. major

Structure (SMILES) | Outcome (L. major [1]; [3]) | pIC50 Value (L. major [2]; [4]) | Outcome (L. major [1]; [5]) | pIC50 Value (L. major [2]; [6])
CC(=O)C1=C(C)NC(=O)NC1c1cccc([N+](=O)[O-])c1 (stereo not shown) [CHEMBL3785264] | Active | 5.61 |  | 
C/C(=N/NC(N)=S)c1ccc(OCc2cn(-c3ccc(S(N)(=O)=O)cc3)nn2)cc1 [CHEMBL4177394] |  |  | Active | 5.08
O=C(/C=C/c1ccc(-n2ccnc2)cc1)c1ccccc1Cl [CHEMBL569355] | Active | 5.52 |  | 
CCCCOc1ccc(-c2nc3ccccc3[nH]2)cc1 [CHEMBL531335] | Active | 5.61 |  | 
CN(C)c1nccn2c(I)c(-c3ccc(F)cc3)nc12 [CHEMBL3634361] |  |  | Inactive | 4.00
CC1=N[C@H](C)Cc2c(-c3ccc4ccccc4c3)ccc(O)c21 [CHEMBL1276918] |  |  | Inactive | 4.46
O=C(/C=C/c1ccc(-n2ccnc2)cc1)c1ccccc1 [CHEMBL571178] | Active | 5.48 |  | 
CC1=N[C@H](C)Cc2c(-c3ccc(Cl)cc3)ccc(O)c21 [CHEMBL1275824] |  |  | Inactive | 4.00
O=[N+]([O-])c1cccc(-c2c(-c3ccc(F)cc3)nc3ccccn23)c1 [CHEMBL2151874] |  |  | Inactive | 4.00
CCN(CC)NC(=O)c1ccc(OCc2ccccc2)cc1 [CHEMBL3613383] |  |  | Inactive | 4.68
COc1ccccc1C(=O)N/N=C/c1ccc(O)c(O)c1 [CHEMBL2382034] | Active | 5.48 |  | 
O=C(CCCCl)N1c2ccccc2Oc2ccc(Cl)cc21 [CHEMBL3759213] |  |  | Inactive | 4.00
Cc1ccc2cc(C3CC(c4ccc(I)s4)=NN3)c(Cl)nc2c1 (stereo not shown) [CHEMBL2235716] | Active | 5.71 |  | 
COc1c(O)ccc2c1C(=O)C(C)=CC2=O [CHEMBL2071233] |  |  | Inactive | 4.03
COc1cc(OC)c2c(C)[n+](-c3ccc4ncccc4c3)c(C)cc2c1.O=C([O-])C(F)(F)F [CHEMBL481907] |  |  | Inactive | 4.00
COc1ccc2c(c1)C=C(/C=C/C(=O)c1ccc(Cl)c(Cl)c1)CO2 [CHEMBL3329270] | Active | 6.00 |  | 
COc1ccccc1C(=O)N/N=C/c1ccncc1 [CHEMBL2382030] |  |  | Inactive | 4.12
O=C(/C=C/c1ccc(-n2ccnc2)cc1)c1ccc(Cl)cc1 [CHEMBL569356] | Active | 5.53 |  | 
CCOC(=O)C1=C(C)NC(=S)NC1c1ccc(C)cc1 (stereo not shown) [CHEMBL3786732] | Active | 5.66 |  | 
COc1ccc(/C=N/NC(=O)c2ccc(-c3nnc(-c4ccccc4OC)o3)cc2)cc1O [CHEMBL4069376] |  |  | Active | 5.19
COc1cc(C)cc2c1C(=O)C=C(c1c(C)cc3ccc(O)c(OC)c3c1O)C2=O [CHEMBL2071226] | Active | 9.74 |  | 

Structure (SMILES) | Outcome (L. major [1]; [3]) | pIC50 Value (L. major [2]; [4]) | Outcome (L. major [1]; [5]) | pIC50 Value (L. major [2]; [6])
CCCCCCNc1ccc(Nc2c3ccc(N(C)C)cc3nc3cc(N(C)C)ccc23)cc1 [CHEMBL86823] | Active | 6.80 |  | 
COc1ccc(OC)c(/C=C/C(=O)C2=Cc3cc(Cl)ccc3OC2)c1 [CHEMBL1095286] | Active | 5.52 |  | 
Cc1cccc2cc(C3CC(c4ccsc4)=NN3)c(Cl)nc12 (stereo not shown) [CHEMBL2235717] | Active | 5.69 |  | 
COc1cc(OC)c2c(C)[n+](-c3ccc(C(C)(C)C)cc3)c(C)cc2c1.F[B-](F)(F)F [CHEMBL516763] | Active | 5.57 |  | 
COc1cccc(-c2nc3ccc([N+](=O)[O-])cc3[nH]2)c1 [CHEMBL2298018] | Active | 5.52 |  | 
Cc1ccc(Nc2ncnc3ccc([N+](=O)[O-])cc23)cc1C [CHEMBL3758240] |  |  | Inactive | 4.45
COC(=O)C1=C(C)NC(C)=C(C(=O)OC(C)(C)CN(C)CCC(c2ccccc2)c2ccccc2)C1c1cccc([N+](=O)[O-])c1 (stereo not shown) [CHEMBL250270] |  |  | Inactive | 4.94
CC(c1ccccc1)N1CN(CC(=O)O)CSC1=S (stereo not shown) [CHEMBL4286679] |  |  | Inactive | 4.51
Cc1ccc2cc(/C=C/C(=O)c3cc(C)sc3C)c(Cl)nc2c1 [CHEMBL1940854] | Active | 5.74 |  | 
CC1=C(C(=O)Nc2ccc(C(=O)/C=C/c3cccc([N+](=O)[O-])c3)cc2)C(c2cccc(O)c2)NC(=S)N1 (stereo not shown) [CHEMBL3786907] | Active | 5.95 |  | 
C/C=C/C=C/c1nc2cccc(OC)c2n2cccc12 [CHEMBL3260209] | Active | 5.48 |  | 
Cc1ccc(/C=C/C(=O)C2=Cc3cc(Cl)ccc3OC2)cc1 [CHEMBL1094967] | Active | 5.56 |  | 
COc1ccc([C@@H]2COc3c(ccc(O)c3CC=C(C)C)C2)c(OC)c1O [CHEMBL501755] |  |  | Active | 5.10
Cc1ccc2cc(/C=C/C(=O)c3cc(Cl)sc3Cl)c(Cl)nc2c1 [CHEMBL1940857] | Active | 5.69 |  | 
CCCNC(=N)c1ccc(N2CCN(c3nnc(-c4ccc([N+](=O)[O-])o4)s3)CC2)cc1.Cl [CHEMBL1783203] |  |  | Active | 5.00
CC(C)(O)[C@@H]1CC[C@](C)([C@@H]2[C@@H](O)C[C@@]3(C)[C@@H]4C[C@H](O)[C@H]5C(C)(C)[C@@H](O)CC[C@@]56C[C@@]46CC[C@]23C)O1 [CHEMBL504655] |  |  | Inactive | 3.97
CCN1CSC(=S)N(CC(=O)O)C1 [CHEMBL4294782] |  |  | Inactive | 4.34
O=C(CCl)N1c2cc(Cl)ccc2Oc2ccc(Cl)cc21 [CHEMBL3759123] |  |  | Active | 5.02
Clc1ccc(C2=NN3C(c4ccccc4)=NNC3S2)c(Cl)c1 (stereo not shown) [CHEMBL1256801] |  |  | Inactive | 4.00
O=C(CCl)N1c2ccccc2Oc2ccc(Cl)cc21 [CHEMBL3758242] |  |  | Active | 5.12
Cc1ccc(-c2nc3ccc([N+](=O)[O-])cc3[nH]2)cc1 [CHEMBL1446966] | Active | 5.46 |  | 

Structure (SMILES) | Outcome (L. major [1]; [3]) | pIC50 Value (L. major [2]; [4]) | Outcome (L. major [1]; [5]) | pIC50 Value (L. major [2]; [6])
O=[N+]([O-])c1ccc(-c2nnc(NCc3cn(Cc4c(F)cccc4Cl)nn3)s2)o1 [CHEMBL1951532] |  |  | Inactive | 4.76
CC1=C(C(=O)Nc2ccc(C(=O)/C=C/c3cccc([N+](=O)[O-])c3)cc2)C(c2ccc(C)cc2)NC(=S)N1 (stereo not shown) [CHEMBL3786068] | Active | 5.90 |  | 
Cc1ccc(C2=NNC(c3cc4cccc(C)c4nc3Cl)C2)s1 (stereo not shown) [CHEMBL2235720] | Active | 5.58 |  | 
CC(=O)N1CCN(c2ccc(OC[C@H]3CO[C@](Cn4ccnc4)(c4ccc(Cl)cc4Cl)O3)cc2)CC1 (racemic) [CHEMBL75] |  |  | Inactive | 4.62
N#CCC(=O)N1c2ccccc2Oc2ccccc21 [CHEMBL3758694] |  |  | Inactive | 4.00
COc1cccc(/C=N/NC(=O)c2ccc(-c3nnc(-c4ccccc4OC)o3)cc2)c1 [CHEMBL4098544] |  |  | Inactive | 4.10
C[C@@H]1[C@H](O)[C@@H](C)/C=C/C=C/C=C/C=C/C=C/C=C/C=C/[C@H](O[C@@H]2O[C@H](C)[C@@H](O)[C@H](N)[C@@H]2O)C[C@@H]2O[C@](O)(C[C@@H](O)C[C@@H](O)[C@H](O)CC[C@@H](O)C[C@@H](O)CC(=O)O[C@H]1C)C[C@H](O)[C@H]2C(=O)O [CHEMBL267345] |  |  | Inactive | 3.27
COc1cc(OC)c2c(C)[n+](-c3c(C)cc(C)cc3C)c(C)cc2c1.F[B-](F)(F)F [CHEMBL480824] | Active | 5.83 |  | 
COc1cc(/C=N\NC(N)=S)ccc1OCc1cn(CC(=O)c2ccc(Br)cc2)nn1 [CHEMBL4159895] |  |  | Active | 5.29
COc1ccc(C2NC(=O)NC(C)=C2C(C)=O)cc1 (stereo not shown) [CHEMBL1369396] | Active | 5.58 |  | 
COc1ccccc1C(=O)N/N=C/c1ccccn1 [CHEMBL2382029] |  |  | Inactive | 4.22
Cc1cccc2cc(/C=C/C(=O)c3sccc3Cl)c(Cl)nc12 [CHEMBL1940866] | Active | 5.65 |  | 
CCC(C)n1ncn(-c2ccc(N3CCN(c4ccc(OCC5COC(Cn6cncn6)(c6ccc(Cl)cc6Cl)O5)cc4)CC3)cc2)c1=O (stereo not shown) [CHEMBL64391] | Active | 5.70 |  | 
O=[N+]([O-])c1ccc(-c2nnc(NCc3cn(Cc4ccccc4F)nn3)s2)o1 [CHEMBL1951523] |  |  | Inactive | 4.72
COc1ccccc1C(=O)N/N=C/c1cccc(O)c1O [CHEMBL2382046] |  |  | Inactive | 4.17
Cc1csc(C2=NNC(c3cc4cccc(C)c4nc3Cl)C2)c1 (stereo not shown) [CHEMBL2235719] | Active | 5.66 |  | 
COc1ccc(/C=N/NC(=O)c2ccccc2OC)cc1O [CHEMBL2382051] |  |  | Inactive | 4.34
CC(=O)N1c2ccccc2Oc2ccccc21 [CHEMBL2180182] |  |  | Inactive | 4.00
CN1CCN(S(=O)(=O)c2ccc(-c3ccc4c(Nc5ncc(Cl)cn5)ccnc4c3)cc2)CC1 [CHEMBL3637895] |  |  | Active | 5.07
CC1=C(C(=O)/C=C/c2cccc([N+](=O)[O-])c2)C(c2ccccc2)NC(=O)N1C (stereo not shown) [CHEMBL3785174] | Active | 5.71 |  | 
